US20120225885A1, “IMIDAZOLE DERIVATIVES AND METHODS OF USE THEREOF” (priority 2009, published 2012)

These molecules were tested against H3 receptor (UniProt Q9Y5N1) (assay: H3 Receptor Binding Assay). Conditions: displacement of 3 nM [3H]R-α-methyl histamine or [3H]Nα-methyl histamine; membranes from guinea pig brain, alternatively recombinant human receptor in HEK-293 cells; 30° C., 30 minutes; read-out: H3 Ave Ki.
Experimental: The source of the H3 receptors in this experiment was guinea pig brain. Alternatively, the source of H3 receptors was recombinant human receptor, expressed in HEK-293 (human embryonic kidney) cells.
The animals weighed 400-600 g. The brain tissue was homogenized with a solution of 50 mM Tris, pH 7.5. The final concentration of tissue in the homogenization buffer was 10% w/v. The homogenates were centrifuged at 1,000×g for 10 minutes. in order to remove clumps of tissue and debris. The resulting supernatants were then centrifuged at 50,000×g for 20 minutes in order to sediment the membranes, which were next washed three times in homogenization buffer (50,000×g for 20 minutes. each). The membranes were frozen and stored at −70° C. until needed.
Compounds of the invention to be tested were dissolved in DMSO and then diluted into the binding buffer (50 mM Tris, pH 7.5) such that the final concentration was 2 μg/ml with 0.1% DMSO. Membranes were then added (400 μg of protein, 5 μg in the case of recombinant human receptor) to the reaction tubes. The reaction was started by the addition of 3 nM [^3H]R-α-methyl histamine (8.8 Ci/mmol) or 3 nM [^3H]N^α-methyl histamine (80 Ci/mmol) and continued under incubation at 30° C. for 30 minutes. Bound ligand was separated from unbound ligand by filtration, and the amount of radioactive ligand bound to the membranes was quantitated by liquid scintillation spectrometry. All incubations were performed in duplicate and the standard error was always less than 10%. Compounds that inhibited more than 70% of the specific binding of radioactive ligand to the receptor were serially diluted to determine a Ki (nM).

Row | Compound | Ki [µM]
1 | C[C@@H]1CCCN1CCc1cn2cc(Br)ccc2n1 [Compound 1] | 0.327
2 | C[C@@H]1CCCN1CCc1cn2cc(-c3ccc(C#N)cc3)ccc2n1 [Compound 2] | 0.027
3 | C[C@@H]1CCCN1CCc1cn2cc(-n3ncccc3=O)ccc2n1 [Compound 3] | 0.0768
4 | C[C@@H]1CCCN1CCc1cn2cc(-c3ccc(N(C)C)cc3)ccc2n1 [Compound 4] | 0.106
5 | COc1ccc(-c2ccc3nc(CCN4CCC[C@H]4C)cn3c2)cc1 [Compound 5] | 0.0918
6 | C[C@@H]1CCCN1CCc1cn2cc(-c3ccc(F)cc3)ccc2n1 [Compound 6] | 0.0585
7 | C[C@@H]1CCCN1CCc1cn2cc(-c3ccc(O)cc3)ccc2n1 [Compound 7] | 0.0645
8 | CC(=O)Nc1ccc(-c2ccc3nc(CCN4CCC[C@H]4C)cn3c2)cc1 [Compound 8] | 0.0675
9 | C[C@@H]1CCCN1CCc1cn2cc(-c3cccc(C#N)c3)ccc2n1 [Compound 9] | 0.013
10 | COc1ccccc1-c1ccc2nc(CCN3CCC[C@H]3C)cn2c1 [Compound 10] | 0.163
11 | C[C@@H]1CCCN1CCc1cn2cc(-c3ccccc3F)ccc2n1 [Compound 11] | 0.074
12 | C[C@@H]1CCCN1CCc1cn2ccc(Br)cc2n1 [Compound 12] | 0.101
13 | C[C@@H]1CCCN1CCc1cn2ccc(-c3ccc(C#N)cc3)cc2n1 [Compound 13] | 0.034
14 | CCOc1cccc(-c2ccn3cc(CCN4CCC[C@H]4C)nc3c2)c1 [Compound 14] | 0.07
15 | C[C@@H]1CCCN1CCc1cn2ccc(-c3ccccc3F)cc2n1 [Compound 15] | 0.025
16 | C[C@@H]1CCCN1CCc1cn2cc(-c3ccc(F)c(C#N)c3)ccc2n1 [Compound 16] | 0.004
17 | C[C@@H]1CCCN1CCc1cn2cc(-c3ccc4ncccc4c3)ccc2n1 [Compound 17] | 0.0112

The remaining lines, values ahead:

Row | Ki [µM] | Compound
18 | 0.0386 | C[C@@H]1CCCN1CCc1cn2cc(-c3cncc(C#N)c3)ccc2n1 [Compound 18]
19 | 0.0365 | C[C@@H]1CCCN1CCc1cn2ccc(-c3ccc(F)nc3)cc2n1 [Compound 19]
20 | 0.104 | C[C@@H]1CCCN1CCc1cn2cc(-c3cccc4ncccc34)ccc2n1 [Compound 20]
21 | 0.459 | C[C@@H]1CCCN1CCc1cn2cc(-c3ccc4[nH]ccc4c3)ccc2n1 [Compound 21]
22 | 0.069 | C[C@@H]1CCCN1CCc1cn2cc(-c3ccc(=O)n(C)c3)ccc2n1 [Compound 22]
23 | 0.022 | C[C@@H]1CCCN1CCc1cn2cc(-c3cnc(N)c(C#N)c3)ccc2n1 [Compound 23]
24 | 0.366 | C[C@@H]1CCCN1CCc1cn2cc(-c3cncnc3)ccc2n1 [Compound 24]
25 | 0.246 | C[C@@H]1CCCN1CCc1cn2cc(-c3cnc(N)cn3)ccc2n1 [Compound 25]
26 | 0.0071 | Cc1nnc2ccc(-c3ccc4nc(CCN5CCC[C@H]5C)cn4c3)cn12 [Compound 26]
